We go through three compounds from article PMC4076524 (The Journal of General Physiology, 2014).

In experiment [1] the target is T1, MlotiK1 CNB domain V288S/A352D mutant (Mesorhizobium japonicum, UniProt Q98GN8, A352D/V288S).
T1 sequence (Q98GN8 211-355 V288S/A352D limits assumed): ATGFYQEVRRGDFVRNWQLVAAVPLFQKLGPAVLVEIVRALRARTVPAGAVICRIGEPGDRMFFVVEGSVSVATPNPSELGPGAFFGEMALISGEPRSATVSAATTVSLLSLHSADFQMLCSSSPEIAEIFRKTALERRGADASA
In words: 8-NBD cAMP fluorescence competition binding assay. Further details: species or system Mesorhizobium loti. The following applies: for coupling energy between V288S and A352D: double mutant cycle analysis of ligand binding.

The subject of experiment [2] is olfactory CNG channel, threonine at C-terminal end of PBC mutated to alanine. The settings on record: threonine to alanine mutant; ref Altenhofen et al., 1991; cited from earlier work.
In experiment [3] the target is T284S/V288S/A352D MlotiK1 potassium channel (Mesorhizobium japonicum, UniProt Q98GN8, A352D/T284S/V288S). In words: 86Rb+ uptake assay in proteoliposomes. It is filed as biochemical, Mesorhizobium loti. The settings on record: Hill fit.
T284S/V288S/A352D MlotiK1 potassium channel, sequence (Q98GN8 whole entry T284S/V288S/A352D, the tested form may be a part): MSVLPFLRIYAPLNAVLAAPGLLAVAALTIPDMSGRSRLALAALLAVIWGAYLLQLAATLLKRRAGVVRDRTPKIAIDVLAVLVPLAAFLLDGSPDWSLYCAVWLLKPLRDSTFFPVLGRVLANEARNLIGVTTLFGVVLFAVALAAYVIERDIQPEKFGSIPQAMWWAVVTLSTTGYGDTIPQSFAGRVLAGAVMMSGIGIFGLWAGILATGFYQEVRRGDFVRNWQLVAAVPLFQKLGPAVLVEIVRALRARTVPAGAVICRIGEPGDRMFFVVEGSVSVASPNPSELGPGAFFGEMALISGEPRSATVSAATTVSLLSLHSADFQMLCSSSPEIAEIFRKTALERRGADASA
Experiment [4] has as its target T2, MlotiK1 CNB domain T284S/V288S/A352D mutant (Mesorhizobium japonicum, UniProt Q98GN8, A352D/T284S/V288S).
T2 sequence (Q98GN8 211-355 T284S/V288S/A352D limits assumed): T1 sequence (Q98GN8 211-355 V288S/A352D limits assumed) with T74S
In words: 8-NBD cAMP fluorescence binding/competition assay. Set-up: species or system Mesorhizobium loti. The settings on record: for coupling energy for the combination of T284S with V288S/A352D: mutant cycle analysis of ligand binding.

The target of experiment [5] is MlotiK1 CNB domain wild type (Mesorhizobium japonicum, UniProt Q98GN8). In words: 8-NBD cAMP fluorescence binding/competition assay. Further details: species or system Mesorhizobium loti.
MlotiK1 CNB domain wild type, sequence (Q98GN8 211-355 limits assumed): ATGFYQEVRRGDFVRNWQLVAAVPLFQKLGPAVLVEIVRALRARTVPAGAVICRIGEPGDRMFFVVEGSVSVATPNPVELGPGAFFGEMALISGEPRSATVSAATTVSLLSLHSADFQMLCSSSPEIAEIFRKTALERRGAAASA
For experiment [6], the system named is bovine olfactory CNG channel. The settings on record: ref Altenhofen et al., 1991; cited from earlier work.
Experiment [7] concerns the target MlotiK1 CNB domain R348K mutant (Mesorhizobium japonicum, UniProt Q98GN8, R348K). In words: 8-NBD cAMP fluorescence competition binding assay. Set-up: species or system Mesorhizobium loti. The following applies: affinities (Kd), range stated over R348N, R348Q and R348K for cAMP and cGMP.
For experiment [8], the target named is MlotiK1 CNB domain A352S mutant (Mesorhizobium japonicum, UniProt Q98GN8, A352S). In words: 8-NBD cAMP fluorescence competition binding assay. Further details: species or system Mesorhizobium loti. The settings on record: competition with 50 nM 8-NBD cAMP, constant ligand, variable protein, room temperature, pH 7.5.
MlotiK1 CNB domain A352S mutant, sequence (Q98GN8 211-355 A352S limits assumed): as the sequence (Q98GN8 211-355 limits assumed) above, with A142S counted along it
The test system of experiment [9] is CNB β domain from the cGMP-dependent protein kinase I. The following applies: ref Huang et al., 2014; cited from earlier work.
In experiment [10] the target is MlotiK1 CNB domain V288I mutant (Mesorhizobium japonicum, UniProt Q98GN8, V288I). In words: 8-NBD cAMP fluorescence competition binding assay. Further details: species or system Mesorhizobium loti.
MlotiK1 CNB domain V288I mutant, sequence (Q98GN8 211-355 V288I limits assumed): as the sequence (Q98GN8 211-355 limits assumed) above, with V78I counted along it
Experiment [11] concerns the target MlotiK1 CNB domain R348N mutant (Mesorhizobium japonicum, UniProt Q98GN8, R348N). In words: 8-NBD cAMP fluorescence competition binding assay. Set-up: species or system Mesorhizobium loti. The settings on record: affinities (Kd), range stated over R348N, R348Q and R348K for cAMP and cGMP.
The target in experiment [12] is MlotiK1 CNB domain R348Q mutant (Mesorhizobium japonicum, UniProt Q98GN8, R348Q). In words: 8-NBD cAMP fluorescence competition binding assay. The following applies: affinities (Kd), range stated over R348N, R348Q and R348K for cAMP and cGMP. Further details: species or system Mesorhizobium loti.
MlotiK1 CNB domain R348Q mutant, sequence (Q98GN8 211-355 R348Q limits assumed): as the sequence (Q98GN8 211-355 limits assumed) above, with R138Q counted along it
For experiment [13], the target named is MlotiK1 CNB domain R348Y mutant (Mesorhizobium japonicum, UniProt Q98GN8, R348Y). In words: 8-NBD cAMP fluorescence competition binding assay. Set-up: species or system Mesorhizobium loti. The following applies: modified titration.
MlotiK1 CNB domain R348Y mutant, sequence (Q98GN8 211-355 R348Y limits assumed): as the sequence (Q98GN8 211-355 limits assumed) above, with R138Y counted along it
Experiment [14] concerns the target MlotiK1 CNB domain V288S mutant (Mesorhizobium japonicum, UniProt Q98GN8, V288S). In words: 8-NBD cAMP fluorescence competition binding assay. Set-up: species or system Mesorhizobium loti.
The target of experiment [15] is MlotiK1 CNB domain A352D mutant (Mesorhizobium japonicum, UniProt Q98GN8, A352D). In words: 8-NBD cAMP fluorescence competition binding assay. Further details: species or system Mesorhizobium loti.
MlotiK1 CNB domain A352D mutant, sequence (Q98GN8 211-355 A352D limits assumed): as the sequence (Q98GN8 211-355 limits assumed) above, with A142D counted along it
Experiment [16] deals with MlotiK1 CNB domain M299Q mutant (Mesorhizobium japonicum, UniProt Q98GN8, M299Q). In words: 8-NBD cAMP fluorescence competition binding assay. Further details: species or system Mesorhizobium loti.
MlotiK1 CNB domain M299Q mutant, sequence (Q98GN8 211-355 M299Q limits assumed): as the sequence (Q98GN8 211-355 limits assumed) above, with M89Q counted along it
Experiment [17] has as its target MlotiK1 CNB domain T284N mutant (Mesorhizobium japonicum, UniProt Q98GN8, T284N). In words: 8-NBD cAMP fluorescence competition binding assay. Set-up: species or system Mesorhizobium loti.
The subject of experiment [18] is bovine rod photoreceptor CNG channel. The settings on record: ref Altenhofen et al., 1991; cited from earlier work.
The target of experiment [19] is MlotiK1 CNB domain R348A mutant (Mesorhizobium japonicum, UniProt Q98GN8, R348A). In words: 8-NBD cAMP fluorescence competition binding assay. Set-up: species or system Mesorhizobium loti. The settings on record: modified titration.
MlotiK1 CNB domain R348A mutant, sequence (Q98GN8 211-355 R348A limits assumed): as the sequence (Q98GN8 211-355 limits assumed) above, with R138A counted along it
In experiment [20] the target is MlotiK1 CNB domain V288L mutant (Mesorhizobium japonicum, UniProt Q98GN8, V288L). In words: 8-NBD cAMP fluorescence competition binding assay. Further details: species or system Mesorhizobium loti.
MlotiK1 CNB domain V288L mutant, sequence (Q98GN8 211-355 V288L limits assumed): as the sequence (Q98GN8 211-355 limits assumed) above, with V78L counted along it
Experiment [21] has as its target MlotiK1 CNB domain T284Q mutant (Mesorhizobium japonicum, UniProt Q98GN8, T284Q). In words: 8-NBD cAMP fluorescence competition binding assay. Further details: species or system Mesorhizobium loti.
Experiment [22] addresses MlotiK1 CNB domain V288S/A352S mutant (Mesorhizobium japonicum, UniProt Q98GN8, A352S/V288S). In words: 8-NBD cAMP fluorescence competition binding assay. Set-up: species or system Mesorhizobium loti.
The target in experiment [23] is MlotiK1 CNB domain V282L mutant (Mesorhizobium japonicum, UniProt Q98GN8, V282L). In words: 8-NBD cAMP fluorescence competition binding assay. Further details: species or system Mesorhizobium loti.
MlotiK1 CNB domain V282L mutant, sequence (Q98GN8 211-355 V282L limits assumed): as the sequence (Q98GN8 211-355 limits assumed) above, with V72L counted along it
Experiment [24] deals with MlotiK1 CNB domain M299C mutant (Mesorhizobium japonicum, UniProt Q98GN8, M299C). In words: 8-NBD cAMP fluorescence competition binding assay. Further details: species or system Mesorhizobium loti.
MlotiK1 CNB domain M299C mutant, sequence (Q98GN8 211-355 M299C limits assumed): as the sequence (Q98GN8 211-355 limits assumed) above, with M89C counted along it
In experiment [25] the target is MlotiK1 CNB domain T284S mutant (Mesorhizobium japonicum, UniProt Q98GN8, T284S). In words: 8-NBD cAMP fluorescence competition binding assay. Set-up: species or system Mesorhizobium loti.
MlotiK1 CNB domain T284S mutant, sequence (Q98GN8 211-355 T284S limits assumed): as the sequence (Q98GN8 211-355 limits assumed) above, with T74S counted along it
Experiment [26] addresses MlotiK1 CNB domain V288A mutant (Mesorhizobium japonicum, UniProt Q98GN8, V288A). In words: 8-NBD cAMP fluorescence competition binding assay. Further details: species or system Mesorhizobium loti.

Structures are written as SMILES. Residue numbers refer to the chain shown, from its start.

MlotiK1 CNB domain V288S mutant, sequence (Q98GN8 211-355 V288S limits assumed): as the sequence (Q98GN8 211-355 limits assumed) above, with V78S counted along it
MlotiK1 CNB domain R348K mutant, sequence (Q98GN8 211-355 R348K limits assumed): as the sequence (Q98GN8 211-355 limits assumed) above, with R138K counted along it
MlotiK1 CNB domain V288A mutant, sequence (Q98GN8 211-355 V288A limits assumed): as the sequence (Q98GN8 211-355 limits assumed) above, with V78A counted along it
MlotiK1 CNB domain T284N mutant, sequence (Q98GN8 211-355 T284N limits assumed): as the sequence (Q98GN8 211-355 limits assumed) above, with T74N counted along it
MlotiK1 CNB domain T284Q mutant, sequence (Q98GN8 211-355 T284Q limits assumed): as the sequence (Q98GN8 211-355 limits assumed) above, with T74Q counted along it
MlotiK1 CNB domain R348N mutant, sequence (Q98GN8 211-355 R348N limits assumed): as the sequence (Q98GN8 211-355 limits assumed) above, with R138N counted along it
MlotiK1 CNB domain V288S/A352S mutant, sequence (Q98GN8 211-355 V288S/A352S limits assumed): as the sequence (Q98GN8 211-355 limits assumed) above, with V78S, A142S counted along it

For orientation: Hill coefficient means a measure of the steepness of the concentration-response curve. Regarding `Nc1ncnc2c1ncn2[C@@H]1O[C@@H]2COP(=O)(O)O[C@H]2[C@H]1O` [cAMP], the “coupling energy between V288S and A352D” value in [1] is -0.78 ± 0.18 kcal/mol. The “preference for cAMP” value in [2] is reported as 3.3 fold. Further, the Hill coefficient in experiment [3] is listed as 0.84. Besides, in [4], the “coupling energy for the combination of T284S with V288S/A352D” value is listed as 0.14 ± 0.19 kcal/mol.
The Kd is the concentration at which binding is half-saturated. Low values mean tighter binding, high ones weaker binding. For `Nc1ncnc2c1nc(SCCNc1ccc([N+](=O)[O-])c3nonc13)n2[C@@H]1O[C@@H]2COP(=O)(O)O[C@H]2[C@H]1O` [8-NBD cAMP], the Kd in experiment [5] was 171 ± 20 nM; in [4] it was 2000 nM.
Consider `Nc1nc2c(ncn2[C@@H]2O[C@@H]3COP(=O)(O)O[C@H]3[C@H]2O)c(=O)[nH]1` [cGMP], for which the “sensitivity to cGMP relative to cAMP (ratio of the K1/2 for channel activation)” value in experiment [6] and in experiment [18] was about 40 times in each case. In addition, the Kd in experiment [7] is 16000 to 46000 nM; in experiment [1], 351 ± 95 nM; in [8], 727 ± 160 nM; in [5], 1730 nM; in experiment [10] it was 797 ± 118 nM; in experiment [11], 16000 to 46000 nM. In addition, the dissociation constant (Kd) in experiment [12] was 16000 to 46000 nM; in experiment [13] it was 33000 ± 4800 nM; in [14], 2100 nM; in [15], 850 ± 121 nM; in [16] it was 11600 nM; in [17] it was 6560 nM. Besides, the dissociation constant (Kd) is 39000 ± 2500 nM in experiment [19]; 996 ± 163 nM in [20]; 6950 nM in experiment [21]; 749 ± 75 nM in experiment [22]; 8950 nM in [23]; 2940 nM in experiment [24]. Besides, the figures for the Kd in experiment [25], in [26] and in experiment [4] were 2980 nM, 2540 nM and 336 ± 126 nM, respectively. Further, in experiment [1], the “coupling energy between V288S and A352D” value was -0.64 ± 0.20 kcal/mol. The “change in ligand-binding energy by V288S when combined with A352D” value in experiment [1] (mutant cycle, relative to A352D) was -0.52 ± 0.18 kcal/mol. Also, the “selectivity for cGMP over cAMP” value in experiment [9] is listed as about 250 times. Moreover, the “change in ligand-binding energy by V288S alone” value in experiment [14] (mutant cycle, relative to wild type) is on record as 0.12 ± 0.10 kcal/mol. In experiment [3], this compound displayed a Hill coefficient of 1.3. The “coupling energy for the combination of T284S with V288S/A352D” value in experiment [4] is -0.34 ± 0.29 kcal/mol.
